By EC50 is commonly meant the concentration that produces a half-maximal response.

The assay concerns the target T1, hGPR120 (Homo sapiens, UniProt Q5NUL3).
T1 construct: expressed in transfected cells; host or cells: CHO-K1
T1 sequence (Q5NUL3 1-361): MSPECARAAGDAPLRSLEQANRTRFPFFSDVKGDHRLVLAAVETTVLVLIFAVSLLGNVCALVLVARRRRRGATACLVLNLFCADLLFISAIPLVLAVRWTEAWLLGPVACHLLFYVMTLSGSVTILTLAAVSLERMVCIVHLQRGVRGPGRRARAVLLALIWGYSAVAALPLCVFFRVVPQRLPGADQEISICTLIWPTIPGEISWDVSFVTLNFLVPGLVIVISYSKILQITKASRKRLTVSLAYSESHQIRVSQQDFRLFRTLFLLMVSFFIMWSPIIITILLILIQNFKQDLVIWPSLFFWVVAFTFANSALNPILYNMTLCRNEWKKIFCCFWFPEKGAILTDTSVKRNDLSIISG
Description: Measurement of activity of GPR120 agonist (cell-based calcium fluorescence assay). Particulars: CHO-K1 cells expressing Ga16 and hGPR120, Calcium 5 dye fluorescence; activity class; read-out: EC50. In outline: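 CHO-K1 cells co-expressing Gα16 and hGPR120, plated 18 h, loaded with Calcium 5 dye for 1 h at 37 °C, then given serially diluted agonists (final 0.5% DMSO). Fluorescence increase expressed as relative % of the 1% DMSO-only signal.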
On to `O=C(O)CCCCOc1c(F)cc(-c2cccnc2OC2CCCC2)cc1F` [Example 232, 5-[4-(2-cyclopentyloxy-pyridin-3-yl)-2,6-difluoro-phenoxy]-pentanoic acid], for which the concentration for a half-maximal effect (EC50) is under 200 nM.

Regarding `O=C(O)CCCCOc1c(F)cc(-c2cccnc2SC2CCC2)cc1F` [Example 233, 5-[4-(2-cyclobutylsulfanyl-3-pyridyl)-2,6-difluoro-phenoxy]pentanoic acid], the concentration giving a half-maximal response (EC50) is under 200 nM.

As to `O=C(O)CCCCOc1c(F)cc(-c2cccnc2SC2CCCC2)cc1F` [Example 234, 5-[4-(2-cyclopentylsulfanyl-3-pyridyl)-2,6-difluoro-phenoxy]pentanoic acid], the half-maximal effective concentration (EC50) is under 200 nM.

For the compound `CC(C)Sc1ncccc1-c1cc(F)c(OCCCCC(=O)O)c(F)c1` [Example 235, 5-[2,6-difluoro-4-(2-isopropylsulfanyl-3-pyridyl)phenoxy]pentanoic acid], the EC50 was under 200 nM.

As for `CCCSc1ncccc1-c1cc(F)c(OCCCCC(=O)O)c(F)c1` [Example 236, 5-[2,6-difluoro-4-(2-propylsulfanyl-3-pyridyl)phenoxy]pentanoic acid], the 50% effective concentration (EC50) was under 200 nM.

With `CC(C)Sc1cccc(-c2cc(F)c(OCCCCC(=O)O)c(F)c2)n1` [Example 237, 5-[2,6-difluoro-4-(6-isopropylsulfanyl-2-pyridyl)phenoxy]pentanoic acid], the concentration giving a half-maximal response (EC50) was under 200 nM.

For `CC(C)Oc1cccc(-c2cc(F)c(OCCCCC(=O)O)c(F)c2)n1` [Example 238, 5-[2,6-difluoro-4-(6-isopropoxy-2-pyridyl)phenoxy]pentanoic acid], the EC50 is under 200 nM.

For `O=C(O)CCCCOc1c(F)cc(-c2cccnc2OCC2CC2)cc1F` [Example 239, 5-[4-[2-(cyclopropylmethoxy)-3-pyridyl]-2,6-difluoro-phenoxy]pentanoic acid], the 50% effective concentration (EC50) is under 200 nM.

In the case of `O=C(O)CCCCOc1c(F)cc(-c2cccnc2OC2CCOC2)cc1F` (stereo not shown) [Example 240, 5-[2,6-difluoro-4-(2-tetrahydrofuran-3-yloxy-3-pyridyl)phenoxy]pentanoic acid], the half-maximal effective concentration (EC50) is 200 to 2000 nM.

As to `O=C(O)CCCCOc1c(F)cc(-c2cccnc2OC2CCOCC2)cc1F` [Example 241, 5-[2,6-difluoro-4-(2-tetrahydropyran-4-yloxy-3-pyridyl)phenoxy]pentanoic acid], the EC50 lay within 200 to 2000 nM.

Take `CC(C)Oc1ncccc1-c1cc(F)c(SC(C)CCC(=O)O)c(F)c1` (stereo not shown) [Example 242, 4-[2,6-difluoro-4-(2-isopropoxy-pyridin-3-yl)-phenylsulfanyl]-pentanoic acid]: the EC50 was under 200 nM.

Take `O=C(O)CCCSc1ccc(-c2cccnc2OC2CCOCC2)cc1F` [Example 244, 4-{2-fluoro-4-[2-(tetrahydropyran-4-yloxy)-pyridin-3-yl]-phenylsulfanyl}-butyric acid]: the EC50 was 200 to 2000 nM.

On to `O=C(O)CCCSc1ccc(-c2cccnc2OC2CCOC2)cc1F` (stereo not shown) [Example 245, 4-{2-fluoro-4-[2-(tetrahydrofuran-3-yloxy)-pyridin-3-yl]-phenylsulfanyl}-butyric acid], for which the EC50 lay in the range of 200 to 2000 nM.

As for `O=C(O)CCCSc1ccc(-c2cccnc2OCC2CCC2)cc1F` [Example 246, 4-[4-(2-cyclobutylmethoxy-pyridin-3-yl)-2-fluoro-phenylsulfanyl]-butyric acid], the concentration for a half-maximal effect (EC50) is under 200 nM.

`O=C(O)CCCSc1c(F)cc(-c2cccnc2OCC(F)(F)F)cc1F` [Example 247, 4-{2,6-difluoro-4-[2-(2,2,2-trifluoro-ethoxy)-pyridin-3-yl]-phenylsulfanyl}-butyric acid]: the EC50 is under 200 nM.

On to `O=C(O)CCCSc1c(F)cc(-c2cccnc2OCC2CCC2)cc1F` [Example 248, 4-[4-(2-cyclobutylmethoxy-pyridin-3-yl)-2,6-difluoro-phenylsulfanyl]-butyric acid], for which the 50% effective concentration (EC50) is under 200 nM.

Regarding `O=C(O)CCCSc1c(F)cc(-c2cccnc2NC2CCCC2)cc1F` [Example 249, 4-[4-(2-cyclopentylamino-pyridin-3-yl)-2,6-difluoro-phenylsulfanyl]-butyric acid], the concentration giving a half-maximal response (EC50) is under 200 nM.

As for `CC(C)Nc1ncccc1-c1cc(F)c(SCCCC(=O)O)c(F)c1` [Example 250, 4-[2,6-difluoro-4-(2-isopropylamino-pyridin-3-yl)-phenylsulfanyl]-butyric acid], the half-maximal effective concentration (EC50) lay in the range of 200 to 2000 nM.

As to `O=C(O)CCCSc1c(F)cc(-c2cccnc2NCC2CC2)cc1F` [Example 251, 4-{4-[2-(cyclopropylmethyl-amino)-pyridin-3-yl]-2,6-difluoro-phenylsulfanyl}-butyric acid], the EC50 lay within 200 to 2000 nM.

Consider `O=C(O)CCCCSc1c(F)cc(-c2cccnc2OC2CCCC2)cc1F` [Example 252, 5-[4-(2-cyclopentyloxy-pyridin-3-yl)-2,6-difluoro-phenylsulfanyl]-pentanoic acid], for which the EC50 is under 200 nM.

Take `CC(C)Oc1ncccc1-c1cc(F)c(SCCCCC(=O)O)c(F)c1` [Example 253, 5-[2,6-difluoro-4-(2-isopropoxy-pyridin-3-yl)-phenylsulfanyl]-pentanoic acid]: the EC50 fell in the range of 200 to 2000 nM.

With `O=C(O)CCCCSc1ccc(-c2cccnc2OC2CCCC2)cc1` [Example 254, 5-[4-(2-cyclopentyloxy-pyridin-3-yl)-phenylsulfanyl]-pentanoic acid], the half-maximal effective concentration (EC50) is under 200 nM.

For the compound `CC(C)Oc1ncccc1-c1ccc(SCCCCC(=O)O)cc1` [Example 255, 5-[4-(2-isopropoxy-pyridin-3-yl)-phenylsulfanyl]-pentanoic acid], the EC50 was in the range of 200 to 2000 nM.

Regarding `CCCSc1ncccc1-c1cc(F)c(SCCCCC(=O)O)c(F)c1` [Example 257, 5-[2,6-difluoro-4-(2-propylsulfanyl-pyridin-3-yl)-phenylsulfanyl]-pentanoic acid], the EC50 is under 200 nM.

`O=C(O)CCCCSc1ccc(-c2cccnc2SC2CCCC2)cc1` [Example 258, 5-[4-(2-cyclopentylsulfanyl-pyridin-3-yl)-phenylsulfanyl]-pentanoic acid]: the concentration giving a half-maximal response (EC50) was under 200 nM.

On to `O=C(O)CCCCSc1ccc(-c2cccnc2SC2CCC2)cc1` [Example 259, 5-[4-(2-cyclobutylsulfanyl-pyridin-3-yl)-phenylsulfanyl]-pentanoic acid], for which the 50% effective concentration (EC50) was under 200 nM.

For the compound `O=C(O)CCCCSc1c(F)cc(-c2cccnc2OCC2CCC2)cc1F` [Example 260, 5-[4-(2-cyclobutylmethoxy-pyridin-3-yl)-2,6-difluoro-phenylsulfanyl]-pentanoic acid], the EC50 is under 200 nM.

Regarding `O=C(O)CCCCSc1c(F)cc(-c2cccnc2OC2CCC2)cc1F` [Example 261, 5-[4-(2-cyclobutoxy-pyridin-3-yl)-2,6-difluoro-phenylsulfanyl]-pentanoic acid], the EC50 was under 200 nM.

Turning to `O=C(O)CCCCCOc1c(F)cc(-c2cccnc2OC2CCCC2)cc1F` [Example 262, 6-[4-(2-cyclopentyloxy-pyridin-3-yl)-2,6-difluoro-phenoxy]-hexanoic acid], the EC50 was under 200 nM.

As to `O=C(O)CCCCCCOc1c(F)cc(-c2cccnc2OC2CCCC2)cc1F` [Example 263, 7-[4-(2-cyclopentyloxy-pyridin-3-yl)-2,6-difluoro-phenoxy]-heptanoic acid], the half-maximal effective concentration (EC50) was 2000 to 20000 nM.

For `CC(C)Oc1ncccc1-c1ccc(OCCCCC(=O)O)c(F)c1` [Example 264, 5-[2-fluoro-4-(2-isopropoxy-pyridin-3-yl)-phenoxy]-pentanoic acid], the EC50 lay within 200 to 2000 nM.

For `O=C(O)CCCCOc1ccc(-c2cccnc2SC2CCCC2)cc1F` [Example 265, 5-[4-(2-cyclopentylsulfanyl-pyridin-3-yl)-2-fluoro-phenoxy]-pentanoic acid], the EC50 is under 200 nM.

For `O=C(O)CCCCOc1ccc(-c2cccnc2SC2CCC2)cc1F` [Example 266, 5-[4-(2-cyclobutylsulfanyl-pyridin-3-yl)-2-fluoro-phenoxy]-pentanoic acid], the concentration for a half-maximal effect (EC50) was under 200 nM.

On to `O=C(O)CCCCOc1ccc(-c2cccnc2OC2CCCC2)cc1F` [Example 267, 5-[4-(2-cyclopentyloxy-pyridin-3-yl)-2-fluoro-phenoxy]-pentanoic acid], for which the EC50 was under 200 nM.

On to `COc1ncccc1-c1cc(F)c(OCCCC(=O)O)c(F)c1` [Example 268, 4-[2,6-difluoro-4-(2-methoxy-pyridin-3-yl)-phenoxy]-butyric acid], for which the EC50 fell in the range of 200 to 2000 nM.

For the compound `C=CCOc1ncccc1-c1cc(F)c(OCCCC(=O)O)c(F)c1` [Example 269, 4-[4-(2-allyloxy-pyridin-3-yl)-2,6-difluoro-phenoxy]-butyric acid], the half-maximal effective concentration (EC50) lay in the range of 200 to 2000 nM.

`CC#CCOc1ncccc1-c1cc(F)c(OCCCC(=O)O)c(F)c1` [Example 270, 4-[4-(2-but-2-ynyloxy-pyridin-3-yl)-2,6-difluoro-phenoxy]-butyric acid]: the EC50 was in the range of 2000 to 20000 nM.

Take `O=C(O)CCCCCOc1c(F)cc(-c2cccnc2OC2CCC2)cc1F` [Example 271, 6-[4-[2-(cyclobutoxy)-3-pyridyl]-2,6-difluoro-phenoxy]hexanoic acid]: the EC50 fell in the range of 200 to 2000 nM.

For the compound `O=C(O)CCCCCOc1c(F)cc(-c2cccnc2OCC2CCC2)cc1F` [Example 272, 6-[4-[2-(cyclobutylmethoxy)-3-pyridyl]-2,6-difluoro-phenoxy]hexanoic acid], the concentration giving a half-maximal response (EC50) was under 200 nM.

In the case of `O=C(O)CCCCCOc1c(F)cc(-c2cccnc2OCC2CC2)cc1F` [Example 273, 6-[4-[2-(cyclopropylmethoxy)-3-pyridyl]-2,6-difluoro-phenoxy]hexanoic acid], the EC50 was in the range of 200 to 2000 nM.

The record behind these values is patent US10221138B2, “Biaryl derivatives as GPR120 agonists” (LG CHEM, LTD., priority 2013, dated 2019).
